The assay has as its target T1, purified human ADE2 (Homo sapiens, UniProt P22234).
T1 sequence (P22234 1-425): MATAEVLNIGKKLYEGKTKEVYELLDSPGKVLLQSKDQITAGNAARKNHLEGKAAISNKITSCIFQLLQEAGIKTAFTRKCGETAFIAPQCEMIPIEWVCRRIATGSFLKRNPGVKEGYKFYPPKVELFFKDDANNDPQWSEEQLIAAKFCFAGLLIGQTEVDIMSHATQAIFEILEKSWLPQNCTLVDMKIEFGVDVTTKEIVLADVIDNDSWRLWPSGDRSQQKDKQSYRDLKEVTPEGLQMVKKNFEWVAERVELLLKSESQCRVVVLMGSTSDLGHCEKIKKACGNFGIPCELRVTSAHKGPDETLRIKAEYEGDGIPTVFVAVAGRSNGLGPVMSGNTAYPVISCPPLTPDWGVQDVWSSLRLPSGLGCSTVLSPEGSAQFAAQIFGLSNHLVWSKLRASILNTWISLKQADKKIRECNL
Nature of the assay: Assay of purified ADE2 (apparent Ki). Type of assay: biochemical. The settings on record: apparent Ki for ADE2, three separate experiments, read-out: Ki^-1. Here is the method:
All assays were performed against purified human ADE2. Results shown are from three separate experiments. Compounds that eluted HSP90 selectively had no effect of ADE2 activity in vitro at µM concentrations. […] Table 2. Determination of apparent Ki for ADE2 against GA structural analogs

Regarding `CO[C@H]1/C=C\C=C(/C)C(=O)NC2=CC(=O)C(NCCN(C)C)=C(C[C@@H](C)C[C@H](OC)[C@H](O)[C@@H](C)/C=C(\C)[C@@H]1OC(N)=O)C2=O` [Inhibitor 707545], the Ki was found to be 62.5 µM.

These data come from patent publication EP1169641B1, “PROTEOME MINING” (THE UNIVERSITY OF VIRGINIA PATENT FOUNDATION, priority 1999, dated 2000).
